In US20240067662A1, “KRAS INHIBITORS” (Bristol-Myers Squibb Company, priority 2022, published 2024):

Target: GMPPNP-loaded KRAS G12C (Homo sapiens, UniProt P01116, G12C)
Experiment: KRAS G12C RAF Disruption Assay (HTRF)
Assay type: biochemical
Conditions: recombinant GMPPNP-loaded KRAS G12C (5 nM), 20 min with compound; GST-RAF1 RBD (9 nM); HTRF signal; read-out: KRASG12C RAF Disruption Assay (IC50)
Procedure: KRAS^G12C RAF Disruption Assay
This is a functional assay that measures activity of compounds against KRAS-G12C^(ON), i.e., the active form of KRAS G12C. Recombinant GMPPNP-loaded KRAS G12C (5 nM) was treated with compound at room temperature for 20 minutes in assay buffer (50 mM Tris pH 7.5, 100 mM NaCl, 1 mM MgCl2, 1 mM DTT, 100ug/ml BSA). Recombinant GST-RAF1 RBD (9 nM) was added, and the reaction mixture was incubated for 20 minutes. SA-Tb (0.25 nM) was added, and the reaction mixture was incubated for 3 hours. HTRF signal was measured (PerkinElmer Envision), the signal ratio (λem 520/λem 495) was calculated, and IC50 values were calculated from the dose-response curve.

Chain of GMPPNP-loaded KRAS G12C (P01116 1-188 isoform P01116-2 G12C): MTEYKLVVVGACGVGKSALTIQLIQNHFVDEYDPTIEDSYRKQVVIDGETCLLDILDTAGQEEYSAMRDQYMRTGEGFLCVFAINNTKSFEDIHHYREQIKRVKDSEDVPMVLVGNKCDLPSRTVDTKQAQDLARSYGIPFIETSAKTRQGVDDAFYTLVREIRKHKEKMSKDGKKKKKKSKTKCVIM

| SMILES | IC50 |
| --- | --- |
| N#CC[C@H]1CN(c2nc(OC[C@@]34CCCN3C[C@H](F)C4)nc3c(F)c(N4CCOc5cccc(F)c54)ncc23)CCN1C(=O)/C(F)=C/c1nccs1 [Example 61, 2-((S)-1-((Z)-2-fluoro-3-(thiazol-2-yl)acryloyl)-4-(8-fluoro-7-(5-fluoro-2,3-dihydro-4H-benzo[b][1,4]oxazin-4-yl)-2-(((2R, 7aS)-2-fluorotetrahydro-1H-pyrrolizin-7a(5H)-yl)methoxy)pyrido[4,3-d]pyrimidin-4-yl)piperazin-2-yl)acetonitrile] | 300 nM |
| C#Cc1c(F)ccc2cc(O)cc(-c3ncc4c(N5CCN(C(=O)/C(F)=C/c6ccccn6)CC5)nc(OC[C@@H]5CCCN5CCCn5cc(CNC(=O)CCCC[C@@H]6SC[C@@H]7NC(=O)N[C@@H]76)nn5)nc4c3F)c12 [Compound 112, N-((1-(3-((S)-2-(((7-(8-ethynyl-7-fluoro-3-hydroxynaphthalen-1-yl)-8-fluoro-4-(4-((Z)-2-fluoro-3-(pyridin-2-yl)acryloyl)piperazin-1-yl)pyrido[4,3-d]pyrimidin-2-yl)oxy)methyl)pyrrolidin-1-yl)propyl)-1H-1,2,3-triazol-4-yl)methyl)-5-((3aS,4S,6aR)-2-oxohexahydro-1H-thieno[3,4-d]imidazol-4-yl)pentanamide] | < 2 nM |
| CN1CCC[C@H]1COc1nc(N2CCN(C(=O)/C(F)=C/c3nccs3)[C@@H](CC#N)C2)c2cnc(-c3cc(O)ccc3F)c(F)c2n1 [Example 23, 2-((S)-1-((Z)-2-fluoro-3-(thiazol-2-yl)acryloyl)-4-(8-fluoro-7-(2-fluoro-5-hydroxyphenyl)-2-(((S)-1-methylpyrrolidin-2-yl)methoxy)pyrido[4,3-d]pyrimidin-4-yl)piperazin-2-yl)acetonitrile] | 180 nM |
| C#Cc1cccc2cccc(-c3ncc4c(N5C[C@H]6CN(C(=O)/C(F)=C/c7ncccn7)C[C@H]6C5)nc(OC[C@@]56CCCN5C[C@H](F)C6)nc4c3F)c12 [Compound 101, (Z)-1-((3aR, 6aS)-5-(7-(8-ethynylnaphthalen-1-yl)-8-fluoro-2-(((2R, 7aS)-2-fluorotetrahydro-1H-pyrrolizin-7a(5H)-yl)methoxy)pyrido[4,3-d]pyrimidin-4-yl)hexahydropyrrolo[3,4-c]pyrrol-2(1H)-yl)-2-fluoro-3-(pyrimidin-2-yl)prop-2-en-1-one] | 12000 nM |
| C#Cc1cccc2cccc(-c3ncc4c(N5CCN(C(=O)/C(F)=C/c6ccccn6)C[C@H]5C)nc(OC[C@@]56CCCN5C[C@H](F)C6)nc4c3F)c12 [Example 75, (Z)-1-((3R)-4-(7-(8-ethynylnaphthalen-1-yl)-8-fluoro-2-(((2R, 7aS)-2-fluorotetrahydro-1H-pyrrolizin-7a(5H)-yl)methoxy)pyrido[4,3-d]pyrimidin-4-yl)-3-methylpiperazin-1-yl)-2-fluoro-3-(pyridin-2-yl)prop-2-en-1-one] | 57 nM |
| C#Cc1cccc2cccc(-c3ncc4c(N5CCCN(C(=O)/C(F)=C/c6ccccn6)CC5)nc(OC[C@@]56CCCN5C[C@H](F)C6)nc4c3F)c12 [Example 77, (Z)-1-(4-(7-(8-ethynylnaphthalen-1-yl)-8-fluoro-2-(((2R, 7aS)-2-fluorotetrahydro-1H-pyrrolizin-7a(5H)-yl)methoxy)pyrido[4,3-d]pyrimidin-4-yl)-1,4-diazepan-1-yl)-2-fluoro-3-(pyridin-2-yl)prop-2-en-1-one] | 120 nM |
| C#Cc1c(F)ccc2cc(O)cc(-c3ncc4c(N5CCN(C(=O)/C(F)=C/c6nccs6)CC5)nc(OC[C@]56CCC[C@H]5N(C)CCC6)nc4c3F)c12 [Example 58, (Z)-1-(4-(7-(8-ethynyl-7-fluoro-3-hydroxynaphthalen-1-yl)-8-fluoro-2-(((4aS, 7aR)-1-methyloctahydro-4aH-cyclopenta[b]pyridin-4a-yl)methoxy)pyrido[4,3-d]pyrimidin-4-yl)piperazin-1-yl)-2-fluoro-3-(thiazol-2-yl)prop-2-en-1-one] | 2 nM |
| C#Cc1c(F)ccc2cccc(-c3ncc4c(N(C)[C@@H]5CCN(C(=O)/C(F)=C/c6ccccn6)C5)nc(OC[C@@]56CCCN5C[C@H](F)C6)nc4c3F)c12 [Compound 117, (Z)-1-((R)-3-((7-(8-ethynyl-7-fluoronaphthalen-1-yl)-8-fluoro-2-(((2R, 7aS)-2-fluorotetrahydro-IH-pyrrolizin-7a(5H)-yl)methoxy)pyrido[4,3-d]pyrimidin-4-yl)(methyl)amino)pyrrolidin-1-yl)-2-fluoro-3-(pyridin-2-yl)prop-2-en-1-one] | 9 nM |
| C#Cc1cccc2cccc(-c3ncc4c(N(C)C5CCN(C(=O)/C(F)=C/c6ccccn6)C5C)nc(OC[C@@]56CCCN5C[C@H](F)C6)nc4c3F)c12 (single isomer, unassigned) [Example 74 cis isomer 2] | 910 nM |
| C#Cc1c(F)c(F)cc2cccc(-c3ncc4c(N5CCN(C(=O)/C(F)=C/c6ccccn6)CC5)nc(OC[C@@]56CCCN5C[C@H](F)C6)nc4c3F)c12 [Compound 99, (Z)-1-(4-(7-(8-ethynyl-6,7-difluoronaphthalen-1-yl)-8-fluoro-2-(((2R, 7aS)-2-fluorotetrahydro-IH-pyrrolizin-7a(5H)-yl)methoxy)pyrido[4,3-d]pyrimidin-4-yl)piperazin-1-yl)-2-fluoro-3-(pyridin-2-yl)prop-2-en-1-one] | 70 nM |
| CN1CCC[C@H]1COc1nc(N2CCN(C(=O)/C(F)=C/c3nccs3)CC2)c2cnc(-c3cccc4cccc(Cl)c34)c(F)c2n1 [Compound 22, (S,Z)-1-(4-(7-(8-chloronaphthalen-1-yl)-8-fluoro-2-((1-methylpyrrolidin-2-yl)methoxy)pyrido[4,3-d]pyrimidin-4-yl)piperazin-1-yl)-2-fluoro-3-(thiazol-2-yl)prop-2-en-1-one] | 1900 nM |
| C#Cc1cccc2cccc(-c3ncc4c(N5CCN(C(=O)/C(Cl)=C/c6ccccn6)CC5)nc(OC[C@@]56CCCN5C[C@H](F)C6)nc4c3F)c12 [Compound 126, (Z)-2-chloro-1-(4-(7-(8-ethynylnaphthalen-1-yl)-8-fluoro-2-(((2R, 7aS)-2-fluorotetrahydro-1H-pyrrolizin-7a(5H)-yl)methoxy)pyrido[4,3-d]pyrimidin-4-yl)piperazin-1-yl)-3-(pyridin-2-yl)prop-2-en-1-one] | 47000 nM |
| C#Cc1cccc2cccc(-c3ncc4c(N5CCN(C(=O)/C(F)=C/c6cncc(C)n6)CC5)nc(OC[C@@]56CCCN5C[C@H](F)C6)nc4c3F)c12 [Compound 125, (Z)-1-(4-(7-(8-ethynylnaphthalen-1-yl)-8-fluoro-2-(((2R, 7aS)-2-fluorotetrahydro-1H-pyrrolizin-7a(5H)-yl)methoxy)pyrido[4,3-d]pyrimidin-4-yl)piperazin-1-yl)-2-fluoro-3-(6-methylpyrazin-2-yl)prop-2-en-1-one] | 480 nM |
| C#Cc1c(F)ccc2cc(O)cc(-c3ncc4c(N5C[C@H]6CC[C@@H](C5)N6C(=O)/C(F)=C/c5nccn5C)nc(OC[C@@]56CCCN5C[C@H](F)C6)nc4c3F)c12 [Compound 5, (Z)-1-((1R, 5S)-3-(7-(8-ethynyl-7-fluoro-3-hydroxynaphthalen-1-yl)-8-fluoro-2-(((2R, 7aS)-2-fluorotetrahydro-1H-pyrrolizin-7a(5H)-yl)methoxy)pyrido[4,3-d]pyrimidin-4-yl)-3,8-diazabicyclo[3.2.1]octan-8-yl)-2-fluoro-3-(1-methyl-1H-imidazol-2-yl)prop-2-en-1-one] | 79 nM |
| N#CC[C@H]1CN(c2nc(OC[C@@]34CCCN3C[C@H](F)C4)nc3c(F)c(-c4cc(F)ccc4C(F)F)ncc23)CCN1C(=O)/C(F)=C/c1nccs1 [Example 43, 2-((S)-4-(7-(2-(difluoromethyl)-5-fluorophenyl)-8-fluoro-2-(((2R, 7aS)-2-fluorotetrahydro-1H-pyrrolizin-7a(5H)-yl)methoxy)pyrido[4,3-d]pyrimidin-4-yl)-1-((Z)-2-fluoro-3-(thiazol-2-yl)acryloyl)piperazin-2-yl)acetonitrile] | 1100 nM |
| C#Cc1cccc2cccc(-c3ncc4c(N(C)[C@H]5CN(C(=O)/C(F)=C/c6cnccn6)C[C@H]5F)nc(OC[C@@]56CCCN5C[C@H](F)C6)nc4c3F)c12 [Compound 130, (Z)-1-((3S,4R)-3-((7-(8-ethynylnaphthalen-1-yl)-8-fluoro-2-(((2R, 7aS)-2-fluorotetrahydro-1H-pyrrolizin-7a(5H)-yl)methoxy)pyrido[4,3-d]pyrimidin-4-yl)(methyl)amino)-4-fluoropyrrolidin-1-yl)-2-fluoro-3-(pyrazin-2-yl)prop-2-en-1-one] | 60 nM |
| N#Cc1cccc2[nH]cc(-c3ncc4c(N5CCN(C(=O)/C(F)=C/c6ccccn6)CC5)nc(OC[C@@]56CCCN5C[C@H](F)C6)nc4c3F)c12 [Compound 133, 3-(8-fluoro-4-(4-((Z)-2-fluoro-3-(pyridin-2-yl)acryloyl)piperazin-1-yl)-2-(((2R, 7aS)-2-fluorotetrahydro-1H-pyrrolizin-7a(5H)-yl)methoxy)pyrido[4,3-d]pyrimidin-7-yl)-1H-indole-4-carbonitrile] | 890 nM |
| C#Cc1c(F)ccc2cc(O)cc(-c3ncc4c(N5CCN(C(=O)/C(F)=C/c6ncco6)CC5)nc(OC[C@@]56CCCN5C[C@H](F)C6)nc4c3F)c12 [Example 54, (Z)-1-(4-(7-(8-ethynyl-7-fluoro-3-hydroxynaphthalen-1-yl)-8-fluoro-2-(((2R, 7aS)-2-fluorotetrahydro-1H-pyrrolizin-7a(5H)-yl)methoxy)pyrido[4,3-d]pyrimidin-4-yl)piperazin-1-yl)-2-fluoro-3-(oxazol-2-yl)prop-2-en-1-one] | 5 nM |
